Results from the supplement of paper PMC3974653.
Counter-ions that a name gives are not always drawn.

test system: MTT (mouse pheochromocytoma); experiment: IC50 of cell viability (ATP content); details: (24 or 48 h)
In short: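 Library compounds were tested at 8 final concentrations (0.5 nM to 46 µM) on MTT mouse pheochromocytoma cells for 24 or 48 hrs, with readout by CellTiter-Glo ATP luminescence. Signals were normalised with positive-control wells at 100% and DMSO wells at 0%. IC50 values were obtained by a four-parameter logistic fit.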

Row | SMILES | IC50 of cell viability [µM]
1 | CCCC(=O)O[C@]1(C(=O)CCl)C(C)CC2C3CCC4=CC(=O)C=CC4(C)[C@@]3(F)C(=O)CC21C (some centres not stated) [CLOBETASONE BUTYRATE] | > 46
2 | Cc1cccc(Nc2cc(Cl)nc(SCC(=O)O)n2)c1C | > 46
3 | Nc1nc(O)c(Br)c(-c2ccccc2)n1 [BROPIRIMINE] | > 46
4 | CO/N=C(\C(=O)N[C@@H]1C(=O)N2C(C(=O)[O-])=C(C[n+]3cccc4c3CCC4)CS[C@H]12)c1csc(N)n1 [CEFPIROME SULPHATE] | > 46
5 | CC(C)COCC(CN(Cc1ccccc1)c1ccccc1)N1CCCC1 (configuration not stated) [BEPRIDIL] | > 46
6 | CNC(=O)C(N)CSC(C)C1=C(C)C2=Cc3c(C(C)SCC(N)C(=O)NC)c(C)c4[n]3[Fe]35[n]6c(c(C)c(CCC(=O)O)c6=CC6=[N+]3C(=C4)C(C)=C6CCC(=O)O)=CC1=[N+]25 (configuration not stated) [CYTOCHROME C] | > 46
7 | CC\12CCC(=O)\C=C1CCC3C2CCC4(C)C3CCC4(O)C#C (configuration not stated) [ETHISTERONE] | > 46
8 | CN(C)c1nc(N(C)C)nc(N(C)C)n1 [Altretamine] | > 46
9 | [Na+].CO[C@@]1(NC(=O)CSCC#N)[C@@H]2SC\C(=C(/N2C1=O)C([O-])=O)CSC3=NN=N[N]3C [Cefmetazole sodium salt] | > 46
10 | CN1C[C@@H](\C=C\2[C@H]1CC3=C[NH]C4=C3C2=CC=C4)C(=O)N[C@]5(C)O[C@@]6(O)[C@@H]7CCCN7C(=O)[C@H](CC8=CC=CC=C8)N6C5=O.CN9C[C@@H](\C=C\%10[C@H]9CC%11=C[NH]C%12=C%11C%10=CC=C%12)C(=O)N[C@]%13(C)O[C@@]%14(O)[C@@H]%15CCCN%15C(=O)[C@H](CC%16=CC=CC=C%16)N%14C%13=O.O[C@H]([C@@H](O)C([O-])=O)C(O)=O [Ergotamine D-tartrate] | > 46
11 | C=CCc1cc(OC)c(O)c(C(=O)NCCO)c1 [Alibendol] | > 46
12 | N#CC(C#N)=Cc1cc(O)c(O)c(O)c1 [Tyrphostin 25] | > 46
13 | CC(=O)[C@H]1CC[C@H]2[C@@H]3CC[C@H]4C[C@](C)(O)CC[C@]4(C)[C@H]3CC[C@]12C [GANAXOLONUM] | > 46
14 | CC1(C)CC1C(=O)N/C(=C/CCCCSCC(N)C(=O)[O][Na])C(=O)O (configuration not stated) [CILASTATIN SODIUM] | > 46
15 | CCCCOC(=O)c1ccc(N)cc1 [BUTAMBEN] | > 46
16 | CCC(=O)OC1[C@@H](N2CCCCC2)C[C@H]2[C@@H]3CC[C@H]4C[C@H](OC(C)=O)[C@@H](N5CCCCC5)C[C@]4(C)[C@H]3CC[C@]12C (some centres not stated) | > 46
17 | CCCC[N+]1(C)C2CC(OC(=O)C(CO)c3ccccc3)CC1C1OC12 (configuration not stated) [BUTYLSCOPOLAMMONIUM] | > 46
18 | CC(C)(C)NCC(O)c1cc(Cl)c(N)c(C(F)(F)F)c1 (configuration not stated) [MABUTEROL HYDROCHLORIDE] | > 46
19 | Cc1nc(C)c(Cl)c(O)c1Cl [CLOPIDOL] | > 46

Row | SMILES | IC50 of cell viability [µM]
20 | COc1cc2nc(N3CCN(C(=O)[C@H]4COc5ccccc5O4)CC3)nc(N)c2cc1OC.C[S+](=O)([O-])O [Doxazosin mesylate] | > 46
21 | C1N2CN3CN1CN(C2)C3 [3-0760 Hexamethylenetetramine] | > 46
22 | CCCSP(=O)(OCC)SCCC [Ethoprop] | > 46
23 | O=C1Oc2ccccc2C(=O)C1C(CC(O)c1ccc(-c2ccc(Br)cc2)cc1)c1ccccc1 (configuration not stated) [BOLDO] | > 46
24 | CCC(C)CCCCC(=O)NC(CCN)C(=O)NC(C(=O)NC(CCN)C(=O)NC1CCNC(=O)C(C(C)O)NC(=O)C(CCN)NC(=O)C(CCN)NC(=O)C(CC(C)C)NC(=O)C(Cc2ccccc2)NC(=O)C(CCN)NC1=O)C(C)O.O=[S+]([O-])(O)O (configuration not stated) [POLYMYXIN B SULFATE] | > 46
25 | C(=C\c1ccncc1)/c1ccccc1 [4-STYRYLPYRIDINE] | > 46
26 | CC/1=C/C(=O)[N-][S](=O)(=O)O1 [Acesulfame K] | > 46
27 | [S]=[Sb+]([S-])[S][Sb+](=[S])[S-] [ANTIMONY PENTASULFIDE] | > 46
28 | CN(Cc1cc(Br)cc(Br)c1N)C1CCCCC1.Cl [BROMHEXINE HYDROCHLORIDE] | > 46
29 | COc1cc(CC(C)N)cc2c1OCO2 (configuration not stated) [(?)-3-Methoxy-4,5-methylenedioxyamphetamine] | > 46
30 | O=P1(N(CCCl)CCCl)NCCCO1 (configuration not stated) [Cyclophosphamide] | > 46
31 | COc1cc(CCN)cc(OC)c1OC [Mescaline] | > 46
32 | CCN1CCc2nc(N)oc2CC1.Cl.Cl [B-HT 933 dihydrochloride] | > 46
33 | CCCCC/C(C=O)=C/c1ccccc1 [AMYL CINNAMAL] | > 46
34 | CCN(CC)CCN1C(=O)CN=C(c2ccccc2F)c2cc(Cl)ccc21 [flurazepam] | > 46
35 | Cc1ccc(N)cc1O [5-Amino-o-cresol] | > 46
36 | CC[C@H](O)C(C[C@H](C)N(C)C)(c1ccccc1)c1ccccc1 | > 46
37 | CC(CN(C)C)C(C)(O)Cc1ccc(Cl)cc1 (configuration not stated) [CLOBUTINOL HYDROCHLORIDE] | > 46

The remaining lines, values ahead:

Row | IC50 of cell viability [µM] | SMILES
38 | > 46 | COC1/C=C/O[C@@]2(C)Oc3c(C)c(O)c4c(O)c(c(C=NN5CCN(C)CC5)c(O)c4c3C2=O)NC(=O)C(C)=C/C=C/C(C)C(O)[C@@H](C)C(O)C(C)[C@H](OC(C)=O)C1C (some centres not stated) [RIFAMPIN]
39 | > 46 | COC1C(OC(=O)/C=C/C=C/C=C/C=C/C(=O)O)CCC2(CO2)C1C1(C)OC1CC=C(C)C (configuration not stated) [FUMAGILLIN]
40 | > 46 | CCO[C@@H](Cc1ccc(OCCc2ccc(O[S+](C)(=O)[O-])cc2)cc1)C(=O)O [Tesaglitazar]
41 | > 46 | O=[N+]([O-])c1nccn1CO[C@@H](CO)[C@H](O)CO [DORANIDAZOLE]
42 | > 46 | COc1cc2c(cc1OC)C(=O)C(CC1CCN(Cc3ccccc3)CC1)C2 (configuration not stated) [DONEPEZIL HYDROCHLORIDE]
43 | > 46 | O=C(O[C@H]1CN2CCC1CC2)N1CCc2ccccc2[C@@H]1c1ccccc1 [SOLIFENACIN SUCCINATE]
44 | > 46 | CCOC(=O)[C@H](CCc1ccccc1)N[C@@H](C)C(=O)N1C(=O)N(C)C[C@H]1C(=O)O [IMIDAPRIL HYDROCHLORIDE]
45 | > 46 | COc1cc2c(c(OC)c1OC)-c1c(cc3c(c1OC)OCO3)CC(C)C(C)(O)C2 (configuration not stated) [Gomisin A]
46 | > 46 | CN(C)CC/C=C1\c2ccccc2COc2ccccc21 [Doxepin hydrochloride]
47 | > 46 | CC1(C)[C@@H]2CC[C@]1(C)[C@@H](OC(=O)CSC#N)C2 [isobornyl thiocyanoacetate]
48 | > 46 | CCCc1cc(C(N)=S)ccn1 [PROTHIONAMIDE]
49 | > 46 | CC(C(O)c1ccccc1)N(C)CCOC(c1ccccc1)c1ccccc1 (configuration not stated) [DIFETEROL HYDROCHLORIDE]
50 | > 46 | COc1ccc2c(c1OC)C(=O)O[C@H]2[C@H]1c2c(cc3c(c2OC)OCO3)CCN1C [Noscapine]
51 | > 46 | C[C@H]1O[C@H]([C@H](O)[C@@H]1O)N2\C=C(F)/C(=O)NC2=O [Doxifluridine]
52 | > 46 | O[C@@](CCN1CCCC1)(c1ccccc1)C1CCCCC1 [Procyclidine hydrochloride]
53 | > 46 | COc1cc(Cc2cnc(N)nc2N)cc(OC)c1OC [Trimethoprim]
54 | > 46 | O=C(O)c1ccccc1-c1c2ccc(=O)cc-2oc2cc(O)ccc12 [Fluorescein sodium]
55 | > 46 | CC[C@@H](C)C(N)C(=O)O (some centres not stated) [ISOLEUCINE]

Row | IC50 of cell viability [µM] | SMILES
56 | > 46 | CCOC(=O)[C@H](CCc1ccccc1)N[C@@H](C)C(=O)N(CC(=O)O)C1Cc2ccccc2C1 [DELAPRIL HYDROCHLORIDE]
57 | > 46 | CCOC(=O)\C1=C(/C)N\C(=C(/C1C2=CC=CC(=C2Cl)Cl)C(=O)OC)C (configuration not stated) [Felodipine]
58 | > 46 | O=P(O)(O)OP(=O)(O)O [Phosphotex]
59 | > 46 | Cn1c(=O)c2c(ncn2CC2OCCO2)n(C)c1=O [Doxofylline]
60 | > 46 | CCCCCCCCCCCCCCCC(=O)O [Hexadecanoic acid]
61 | > 46 | CCCCCCCCCCCCCCCCCCCCCC(=O)Nc1ccn([C@@H]2O[C@H](CO)[C@@H](O)[C@@H]2O)c(=O)n1 [ENOCITABINE]
62 | > 46 | Cc1cc(C(=O)NCCc2ccc([S+](=O)([O-])NC(=O)NN3CCCCCC3)cc2)no1 [Glisoxepide]
63 | > 46 | C[C@@H]1C[C@H]2C3C[C@H](F)\C4=C\C(=O)\C=C/C4(C)C3[C@@H](O)CC2(C)[C@@]1(O)C(=O)COC(C)=O (some centres not stated) [Paramethasone acetate]
64 | > 46 | Cn1c([N+](=O)[O-])cnc1COC(N)=O [RONIDAZOLE]
65 | > 46 | CC/C=C\C/C=C\C/C=C\CCCCCCCC(=O)O [LINOLENIC ACID]
66 | > 46 | Cc1cccc(Nc2ccccc2C(=O)O)c1C [Mefenamic acid]
67 | > 46 | Cc1onc(-c2ccccc2)c1-c1ccc([S+](N)(=O)[O-])cc1 [VALDECOXIB]
68 | > 46 | COc1cnc(N[S+](=O)([O-])c2ccc(N)cc2)nc1 [Sulfameter]
69 | > 46 | CCCCC1(COC(=O)CCC(=O)O)C(=O)N(c2ccccc2)N(c2ccccc2)C1=O [Suxibuzone]
70 | > 46 | NC(=O)c1cn(Cc2c(F)cccc2F)nn1 [RUFINAMIDE]
71 | > 46 | CN(C)c1cc(NC(=O)CNC(C)(C)C)c(O)c2c1C[C@H]1C[C@H]3[C@H](N(C)C)C(O)=C(C(N)=O)C(=O)[C@]3(O)C(O)=C1C2=O [Tigecycline]
72 | > 46 | CCc1ncnc2cc(OC)c(OC)cc12 [Quazodine]
